What was measured:
[1] = DVS moisture sorption isotherm; assay type: physicochemical; settings: 25° C., 0-90% RH, 10% RH intervals
Description: Sorption isotherms are obtained using a TA Instruments Q5000 SA DVS. The sample temperature is maintained at 25° C. by the instrument controls. The humidity is controlled by mixing streams of dry and wet nitrogen, with a total flow rate of 200 ml/min. The relative humidity is measured by a calibrated probe (dynamic range of […]), located near the sample. The weight change, (mass relaxation) of the sample as a function of % RH is constantly monitored by a microbalance (accuracy 0.0001 mg). Typically, 3-10 mg of sample is placed in a tared mesh stainless steel basket under ambient conditions. The sample is loaded and unloaded at 50% RH and 25° C. (typical room conditions). A moisture sorption isotherm is performed as outlined below (2 scans per complete cycle). The standard isotherm is performed at 25° C. at 10% RH intervals over a 0-90% RH range. Typically, a triple cycle is carried out. Data analysis is carried out using TA Instruments Universal Analysis 2000. [table]

[2] = comparison statement for selinexor itself; no medium given; cited from earlier work

## O=C(/C=C\n1cnc(-c2cc(C(F)(F)F)cc(C(F)(F)F)c2)n1)NNc1cnccn1 [selinexor, (Z)-3-(3-(3,5-bis(trifluoromethyl)phenyl)-IH-I,2,4-triazol-1-yl)-N′-(pyrazin-2yl)acrylohydrazide]
[1]
  DVS water adsorption: does not adsorb water
[2]
  solubility: low solubility

Source: patent US20260258017A1, “CO-CRYSTAL FORMS OF SELINEXOR” (Karyopharm Therapeutics Inc., priority 2019, published 2026)
